{"source": "patent US20260266804A1", "about": "“MODEL FOR ANALYZING INFLAMMATION AND USES THEREOF” (Technion Research & Development Foundation Limited, priority 2022, published 2026)", "key": {"Caco2 cells": {"test_system": "Caco2 cells", "experiment": "SNAP treatment of 55Fe labeled Caco2 cells, CPM in cells and medium", "assay_type": "cell-based, human", "details": "SNAP induced Caco2 cells", "experimental": "(§1) Day before SNAP (Sigma) treatment, Caco2 cells were cultured in working medium with MEM (Sigma) supplemented with 20% heat inactivated FCS (Biological Industries), ferric ammonium citrate (Sigma), non-essential amino acids (Gibco), sodium pyruvate (Gibco), L-glutamine (Biological Industries) and Pen.-strep. (Biological Industries) in an oxygen modified incubator (6% O2) at 37° C. and 5% CO2.\n(§2) SNAP was added to the cells for 22 hours in two sequential doses 1 mM each. First dose was added for 6 hours, 20% of the medium was then collected and replaced with working medium containing 5 mM SNAP for additional incubation of […].\nCells were given medium containing transferrin loaded with labeled iron. First labeled Ferric nitrilotriacetate (Fe-(NTA)2) was prepared, by mixing 5 parts of […] (pH=3) in 0.9% NaCl, with 4 parts of 100 mM of ferric chloride solution (FeCl3) in 0.1M HCl and one part of ^55Fe labeled ferric chloride solution (^55FeCl3). The mixture was incubated for 30 minutes at RT. Next, 125 parts of 1 mM human Apotransferrin (Kamada) solution in HBS was mixed with 12.5 parts of NaHCO3 and 10 parts of the labeled Ferric nitrilotriacetate (50 mM). The mixture was then added to the growth medium, 147.5 ul of labeled transferrin was added to 2 ml of growth medium. Cells were labeled with ^55Fe for ON. Then the medium was removed and cells were washed with PBS. […]"}, "Caco-2 cells": {"test_system": "Caco-2 cells", "experiment": "SNAP treatment of Caco2 cells, IL-8 mRNA by qRT-PCR", "assay_type": "cell-based, human", "details": "SNAP two sequential doses, 22 hours", "experimental": "as §1, §2\n(§3) RNA was extracted using the Trizol reagent (Invitrogen). Cells were harvested directly with Trizol, whereas tissues were first ground in liquid-N2 cooled mortars then incubated with Trizol following manufacturer's instructions. Isolated RNA samples were submitted to DNase treatment using DNase I recombinant, RNase-free kit (Roche). cDNA was prepared using cDNA Reverse Transcription Kit (Quanta biosciences), and the RT-PCRs were performed using SYBR master mix (Applied Biosystems). The delta Ct method was used to calculate a relative expression of the target gene in comparison to topoisomerase 1 for epithelial cells and ubiquitin for macrophage genes."}, "[1]": {"test_system": "aconitase (IRP1 activation)", "experiment": "Tempol in ECs-Raw 264.7 co-culture, aconitase in-gel activity", "assay_type": "cell-based", "details": "Tempol 3 mM, direct correlation with incubation time", "experimental": "(§4) Day before co-culture assembly Caco2 cells were cultivated in an oxygen modified incubator (6% O2). Confluent co-cultures of epithelial cells and macrophages were obtained by seeding 2×10^5 cells per cm^2 surface area. Cell culture dishes employed were 10 cm or 6 well. For Caco2-Raw 264.7 co-cultures, Caco2 cells were seeded, after adherence Raw264.7 cells were added accordingly. For Caco2-BMDM co-cultures, on the six day of bone marrow extraction the cells were plated as previously mentioned, and Caco2 cells were added to them accordingly. Co-cultures were cultivated in an oxygen modified incubator (6% O2) at 37° C. and 5% CO2. Co-culture ratios used were 1:1 or 2:1 or 1:2.\nMitochondrial and cytosolic aconitase activities were assayed in parallel in cell lysates after electrophoretic separation as previously described [Tong et al. Cell metabolism 3, 199-210 (2006)]. Protein concentrations were determined using the Bradford assay (BIO-RAD, Hercules, California). Aconitase activity was detected chromogenically by incubating the gels in 100 mM Tris pH 8, 1 mM NADP, 2.5 mM cis-aconitic acid, 1.2 mM 3-(4,5-dimethylthiazol-2-yl)-2,5-diphenyl tetrazolium bromide, 0.3 mM phenazine methosulfate, 5 mM MgCl2 and 5 Units/ml isocitrate dehydrogenase. All chemicals were purchased from Sigma Missouri."}, "[2]": {"test_system": "epithelial pro-inflammatory markers (Caco2 cells)", "experiment": "Pre-conditioning of Caco2 cells with tempol, then Raw 264.7 cells and LPS, qRT-PCR", "assay_type": "cell-based, human", "details": "tempol 3 mM 16 hours pre-conditioning, then Raw 264.7 and LPS 6 hours", "experimental": "Representative SDS-PAGE gels of subcellular fractions, cytosolic nuclear soluble and nuclear chromatic bound fractions (upper). Protein levels were quantified with Image J (lower), values presented as mean±SD. n=4. * DFO 100 Um for 24 hours. C-E. Co-culture of epithelial cells and macrophages with targeted deletion of IRP1 (MΦ Irp1^−/−) didn't restore iron homeostasis in the co-culture upon LPS stimulation. Epithelial cells were co-cultured with BMDM isolated from C57BL/6 mice (MΦ wt) or from IRP^−/− on C57BL/6 background mice (MΦ Irp1^−/−) as described. LPS 200 ng/ml was added for 24 hours. […] Representative immunoblot of FtH. n=8. […] Representative blot of IRP2. n=8. E. Aconitase activities were decreased in epithelial cells and macrophages in EC-MΦ wt and EC-MΦ Irp1^−/− co-cultures. Representative aconitase in-gel assay. n=4. […] Caco2 cells were cultured with tempol (3 mM) for 16 hours, cells were then washed, and Raw 264.7 cells were added. When Raw 264.7 cells were adhered, the excess of cells was washed away and LPS was added for 6 hours. Expression levels were measured by qRT-PCR. n=6.\nRNA was extracted using the Trizol reagent (Invitrogen). Cells were harvested directly with Trizol, whereas tissues were first ground in liquid-N2 cooled mortars then incubated with Trizol following manufacturer's instructions. […]"}, "ECs-Raw 264.7 co-culture": {"test_system": "ECs-Raw 264.7 co-culture", "experiment": "Tempol in ECs-Raw 264.7 co-culture, pro-inflammatory markers by RTqPCR", "assay_type": "cell-based, human and mouse", "details": "Tempol 3 mM alone, different times, no LPS", "experimental": "as §4, §3"}}, "note": "Entries after “also recorded” stand apart in the source; their conditions may differ.", "data": [{"smiles": "CC(=O)N[C@H](C(=O)O)C(C)(C)SN=O", "note": "(racemic) [SNAP, S-Nitroso-N-Acetylpenicillamine]", "values": [{"measurement": "intracellular iron", "setting": "Caco2 cells; 55Fe CPM in the cells", "result": "reduced"}, {"measurement": "extracellular iron", "setting": "Caco2 cells; 55Fe CPM in the medium", "result": "increased"}, {"measurement": "IL-8 mRNA expression levels / inflammatory response in Caco-2 cells alone", "setting": "Caco-2 cells", "result": "showed an inflammatory response; also recorded: elevated"}]}, {"smiles": "CC1(C)CC(O)CC(C)(C)N1[O]", "note": "[tempol]", "values": [{"measurement": "aconitase activities", "setting": "[1]", "result": "decreased"}, {"measurement": "expression levels of selected epithelial pro-inflammatory markers", "setting": "[2]", "result": "significantly increased"}, {"measurement": "transcription levels of pro-inflammatory markers / inflammatory response", "setting": "ECs-Raw 264.7 co-culture", "result": "did not elicit any inflammatory response; also recorded: increased trend that was not statistically significant"}]}]}
